Experimental data from patent US20230203095A1, “BIOLOGICAL PEPTIDE FOR TREATING LUNG DISEASES AND APPLICATION THEREOF” (SHANGHAI INSTITUTE OF PHARMACEUTICAL INDUSTRY CO., LTD., priority 2019, published 2023).
“And” between values parts separate entries of the source, which are not always exact repeats. Equal entries are not always repeated. Where two headings read alike, the source gives them in different places. One block for each compound: values may come before it. Peptide text beside a SMILES is read from it. * marks the point of attachment. X1 = CC(=O)N[C@H]1C(*)O[C@H](CO)[C@@H](O)[C@@H]1O

Columns and labels:
[1] = Stability of each 7-peptide compound in rat whole blood; assay type: in vitro ADME; conditions: for stability in whole blood: compared with SP peptide; for recovery: rat whole blood, 37° C., 1000 ng/mL, read-out: Recovery rate (%) M±SD
Procedure: Preparation of the test product: SP and SIPI-D00 were dissolved and diluted with an appropriate amount of 50% acetonitrile water containing 0.1% formic acid to obtain a working solution with a concentration of 200 µg/mL.
• 1) Fresh rat whole blood was added to the EP tube, and shaken gently to mix well; • 2) The EP tube was pre-incubated in a 37° C. water bath for 5 minutes; • 3) Each compound was added to start the reaction and continued to incubate at 37° C.; • 4) 50 µL sample was taken from the sample tube at 0, 2 min, 5 min, 10 min, 30 min, and 60 min, respectively, into the stop tube, 50 µL of ice-cold 7% perchloric acid was added, and shaken to stop the reaction; • 5) Sample was centrifuged at 13000 r/min for 10 min, 75 µL supernatant was aspirated, 60 µL1.25% ammonia water was added and mixed well. After filtered with […] microporous membrane, 20 µL sample was taken for LC-MS/MS analysis.

[2] = tested on: COPD model rats; assay: Lung function (200 ms pulmonary ventilation) in smoking + LPS COPD model rats; assay type: in vivo, SD rats; conditions: 5 mg/kg body weight/day, aerosol, once a day for 4 weeks
[3] = Plasma drug concentrations and pharmacokinetics after a single subcutaneous injection of SP peptide or SIPI-D00 peptide in SD rats; assay type: in vivo
Procedure: Route: Single back subcutaneous injection;
Dosage of the drug: SP peptide and SIPI-D00 peptide were prepared into 3.33 mg/mL solution with normal saline, the dosage of SP peptide by back subcutaneous injection was 10 mg/kg body weight, and the dosage of SIPI-D00 peptide by back subcutaneous injection was 5 mg/kg body weight. […]

[4] = tested on: ConA-stimulated mouse splenocytes; assay: Secretion of IL-4 from mouse splenocytes stimulated by ConA (ELISA); assay type: cell-based, BALB/C mice; conditions: for IL-4 levels of polypeptides: ConA 5 µg/mL, 24 h
Procedure: (§1) Three BALB/C mice were sacrificed by cervical dislocation after anesthesia. Then mice were immersed in 75% ethanol for 5 minutes. After dissection and spleen extraction, spleen lymphocytes were prepared. […] Different concentrations of test substances were added to each well, and duplicate wells were set for each concentration, and the final concentration of ConA was 5 µg/mL. The plate was incubated in a 37° C. 5% CO2 incubator for 24 h, the drug-containing cell suspension was aspirated from each well, then centrifuged at 200 g for 15 min at 4° C. The supernatant was taken, and mouse IL-4 Elisa kit was used to detect IL- 4 content.
as §1, with “each concentration was” for “duplicate wells were”, “up as triple wells,” for “for each concentration,”, “kit (mouse IL-4 Elisa kit)” for “kit”

[5] = tested on: serum IgE; assay: Serum IgE level in OVA-induced allergic asthma model mice; assay type: in vivo, BALB/c mice
Procedure: (§2) The first batch: mice were divided into groups, 10 mice in each group, namely: blank control group (normal saline), model group (OVA, 20 ug/mouse), SP peptide group (administered dose of 175 µg/kg body weight/day, 350 µg/kg body weight/day, respectively), SIPI-D00 peptide group (administered dose of 175 µg/kg body weight/day, 350 µg/kg body weight/day), and dexamethasone group (administered dose of 2 mg/kg body weight/day).
OVA for sensitization was dissolved in sterile PBS solution at a final concentration of 0.2 mg/mL, then an equal volume of aluminum hydroxide adjuvant was added. After shaking for 30 minutes, each mouse was intraperitoneally injected with 0.2 mL (20 µg OVA per mouse).
2% OVA solution was prepared in sterile PBS. The 2% OVA was nebulized with a nebulizer, and the mice were placed in the nebulizer inhalation box for 30 minutes per day.
According to the dosage, SP peptide and SIPI-D00 were dissolved in normal saline respectively, and administered by subcutaneous administration on the back according to the body weight of the animals.
(§3) Mice in the model group, SP peptide group, SIPI-D00 peptide group and dexamethasone group were sensitized by intraperitoneal injection of OVA (20 µg OVA/mice) on day 0, 7, and 14, and challenged by aerosol administration of OVA (once a day for 5 consecutive days) on day 21-25 to construct asthmatic model animals. Mice in the model group were given normal saline on days 21-28; mice in different doses of SP peptide group and SIPI-D00 peptide group were injected subcutaneously with different doses of SP and SIPI-D00 on days 19-28; mice in dexamethasone group were injected intraperitoneally with 2 mg/kg/day dexamethasone on days 21-28. At the same time, 10 mice in the blank control group were fed normally from day 0 to day 28 without any treatment, and were given normal saline as a blank control.
After 28 days, blood was collected from the inner canthus of the mouse, and the serum was collected, and the IgE level in the serum was measured with an ELISA kit. […]
(§4) At the same time, 10 mice in the blank control group were fed normally from day 0 to day 28 without any treatment, and were given normal saline as a blank control.

[6] = tested on: OVA-induced asthma model mice; assay: Lung pathology (H&E) of OVA-induced asthma model mice; assay type: in vivo, BALB/c mice; conditions: after 28 days
Procedure: as §2, §3
After 28 days, the mouse lung tissue was taken out, fixed in 4% formaldehyde, embedded in paraffin, sectioned, and stained with H&E for pathological observation.
as §2, with “ug/mice), and” for “ug/mouse),”, “SIPI-G5” for “SIPI-D00”, “weight/day),” for “weight/day), and”
as §4

[7] = tested on: OVA-induced asthma model mice; assay: Lung function (inspiratory airway resistance, lung compliance) in OVA-induced allergic asthma model mice; assay type: in vivo, BALB/c mice; conditions: for Inspiratory airway resistance / Lung compliance: 2 mg/kg/day i.p., n=10
Procedure: The second batch: mice were divided into groups, 10 mice in each group, namely: blank control group (normal saline), model group (OVA, dose of 20 ug/mouse), SP peptide group (administered dose of 87.5 µg/kg body weight/ day, 175 µg/kg body weight/day, 350 µg/kg body weight/day, respectively), SIPI-D00 peptide group (administered dose of 87.5 µg/kg body weight/day, 175 µg/kg body weight/day, 350 µg/kg body weight/day), and Dexamethasone group (administered dose of 2 mg/kg body weight/day).
as §3
On the 28th day, the mice were anesthetized with tracheal intubation and jugular vein intubation, and the inspiratory airway resistance and lung compliance were measured in each group of animals. Each animal was given fold increasing amounts of methacholine via the jugular vein: 0.025 mg/kg, 0.05 mg/kg, 0.1 mg/kg, 0.2 mg/kg. After each dose was given, the lung compliance curve was recorded continuously for 5 minutes, and the inspiratory airway resistance and lung compliance were calculated. […]
as §4

recovery ([1]; incubation time 0 min): 100%
recovery ([1]; incubation time 2 min): 86.1 ± 1.8%
recovery ([1]; incubation time 5 min): 81.3 ± 8.3%
recovery ([1]; incubation time 10 min): 73.4 ± 2.6%
recovery ([1]; incubation time 30 min): 59.7 ± 8.8%
recovery ([1]; incubation time 60 min): 51.1 ± 4.9%
Compound: CC(=O)N[C@H]1C(O[C@H](C)[C@H](NC(=O)[C@H](CCC(N)=O)NC(=O)CN)C(=O)N[C@@H](Cc2ccc(O)cc2)C(=O)N[C@H](C(=O)N[C@@H](CO)C(=O)NCC(=O)O)[C@@H](C)O)O[C@H](CO)[C@@H](O)[C@@H]1O (stereo partly shown) [SIPI-G6, GQT(Glc)YTSG] (H-GQT(X1)YTSG-OH)
stability in whole blood [1]: significantly higher than that of SP peptide

recovery ([1]; incubation time 0 min): 100%
recovery ([1]; incubation time 2 min): 94.6 ± 8.5%
recovery ([1]; incubation time 5 min): 87.3 ± 5.6%
recovery ([1]; incubation time 10 min): 87.2 ± 5.9%
recovery ([1]; incubation time 30 min): 77.7 ± 8.1%
recovery ([1]; incubation time 60 min): 77.1 ± 2.3%
Compound: CC(=O)N[C@H]1C(OC[C@H](NC(=O)[C@@H](NC(=O)[C@H](Cc2ccc(O)cc2)NC(=O)[C@@H](NC(=O)[C@H](CCC(N)=O)NC(=O)CN)[C@@H](C)OC2O[C@H](CO)[C@@H](O)[C@H](O)[C@H]2NC(C)=O)[C@@H](C)OC2O[C@H](CO)[C@@H](O)[C@H](O)[C@H]2NC(C)=O)C(=O)NCC(=O)O)O[C@H](CO)[C@@H](O)[C@@H]1O (stereo partly shown) [SIPI-G4, GQT(Glc)YT(Glc)S(Glc)G] (H-GQT(X1)YT(X1)S(X1)G-OH)
stability in whole blood [1]: significantly higher than that of SP peptide

recovery ([1]; incubation time 0 min): 100%
recovery ([1]; incubation time 2 min): 83.6 ± 8.1%
recovery ([1]; incubation time 5 min): 83.2 ± 6.1%
recovery ([1]; incubation time 10 min): 80.7 ± 2.3%
recovery ([1]; incubation time 30 min): 71.2 ± 6.3%
recovery ([1]; incubation time 60 min): 58.6 ± 4.8%
Compound: CC(=O)N[C@H]1C(O[C@H](C)[C@H](NC(=O)[C@H](Cc2ccc(O)cc2)NC(=O)[C@@H](NC(=O)[C@H](CCC(N)=O)NC(=O)CN)[C@@H](C)OC2O[C@H](CO)[C@@H](O)[C@H](O)[C@H]2NC(C)=O)C(=O)N[C@@H](CO)C(=O)NCC(=O)O)O[C@H](CO)[C@@H](O)[C@@H]1O (stereo partly shown) [SIPI-G8, GQT(Glc)YT(Glc)SG] (H-GQT(X1)YT(X1)SG-OH)
stability in whole blood [1]: significantly higher than that of SP peptide

Further lines, the compound ahead of its results:

Compound: CCCC1O[C@@H]2C[C@H]3[C@@H]4CCC5=CC(=O)C=C[C@]5(C)[C@H]4[C@@H](O)C[C@]3(C)[C@]2(C(=O)CO)O1 (stereo partly shown) [Budesonide, budesonide]
200 ms pulmonary ventilation [2]: 77.17 ± 11.20 mL
Percentage of 200 ms pulmonary ventilation (%) [2]: 465.8±77.8 %

Compound: H-GQTYTSG-OH [SP, GQTYTSG, reference compound]
recovery ([1]; incubation time 0 min): 100%
recovery ([1]; incubation time 2 min): 64.1 ± 7.6%
recovery ([1]; incubation time 5 min): 41.3 ± 6.8%
recovery ([1]; incubation time 10 min): 28.5 ± 0.9%
recovery ([1]; incubation time 30 min): 4.93 ± 0.7%
recovery ([1]; incubation time 60 min): 1.67 ± 0.5%
Plasma concentration ([3]; SP peptide 10 mg/kg s.c., SD rats, time 0 min, parallels 1-4): 0 ng/mL
level at 0.5 min ([3]; male, SD, rat, plasma, sc, 10 mg/kg, SP peptide 10 mg/kg s.c., SD rats, time 0.5 min, parallels 1-4, read-out: Plasma concentration): 74.2 ng/mL
AUC(0-inf) ([3]; rat, in vivo, sc, 10 mg/kg): 11.9 ng·h/mL
AUC(0-t) ([3]; rat, in vivo, sc, 10 mg/kg): 11.9 ng·h/mL
Cmax ([3]; rat, in vivo, sc, 10 mg/kg): 210 ± 21.6 ng/mL
half-life ([3]; rat, in vivo, sc, 10 mg/kg): 8.65 ± 1.79 min
Inhibitory rate of polypeptide on IL-4 secretion ([4]; peptide concentration 1 µg/mL): 33.90%
IL-4 levels of polypeptides ([4]; peptide concentration 1 µg/mL): 14.28 ± 0.51 pg/mL
Inhibitory rate of polypeptide on IL-4 secretion ([4]; peptide concentration 3 µg/mL): 42.51%
IL-4 levels of polypeptides ([4]; peptide concentration 3 µg/mL): 12.42 ± 0.34 pg/mL
Inhibitory rate of polypeptide on IL-4 secretion ([4]; peptide concentration 10 µg/mL): 50.21%
IL-4 levels of polypeptides ([4]; peptide concentration 10 µg/mL): 10.76 ± 2.55 pg/mL
Inhibitory rate of polypeptide on IL-4 secretion ([4]; peptide concentration 30 µg/mL): 52.15%
IL-4 levels of polypeptides ([4]; peptide concentration 30 µg/mL): 10.34 ± 0.27 pg/mL
Serum IgE level (OD450) ([5]; 175 ug/kg/day subcutaneous, days 19-28, n=10): 0.634 ± 0.078 OD450 and 0.634 + OD450
Serum IgE level (OD450) ([5]; 350 ug/kg/day subcutaneous, days 19-28, n=10): 0.595 ± 0.041 OD450 and 0.595 + OD450
lung pathology, H&E ([6]; high-dose group (350 µg/kg body weight/day)): some inflammatory cells are found in the airway mucosa
lung pathology, H&E ([6]; low-dose group (175 µg/kg body weight/day)): some inflammatory cells are found in the airway mucosa

Compound: C[C@@H]1C[C@H]2[C@@H]3CCC4=CC(=O)C=C[C@]4(C)[C@@]3(F)[C@@H](O)C[C@]2(C)[C@@]1(O)C(=O)COP(=O)([O-])[O-].[Na+].[Na+] [Dexamethasone, dexamethasone sodium phosphate, reference compound]
Serum IgE level (OD450) ([5]; 2 mg/kg/day intraperitoneal, days 21-28, n=10): 0.285 ± 0.041 OD450
Inspiratory airway resistance ([7]; methacholine 0 mg/kg): 1.00±0.00
Lung compliance ([7]; methacholine 0 mg/kg): 1.00±0.00
Inspiratory airway resistance ([7]; methacholine 0.025 mg/kg): 1.06±0.08
Lung compliance ([7]; methacholine 0.025 mg/kg): 0.97±0.10
Inspiratory airway resistance ([7]; methacholine 0.05 mg/kg): 1.15±0.14
Lung compliance ([7]; methacholine 0.05 mg/kg): 0.89±0.14
Inspiratory airway resistance ([7]; methacholine 0.1 mg/kg): 1.20±0.21
Lung compliance ([7]; methacholine 0.1 mg/kg): 0.87±0.22
Inspiratory airway resistance ([7]; methacholine 0.2 mg/kg): 1.23±0.17
Lung compliance ([7]; methacholine 0.2 mg/kg): 0.83±0.14
inspiratory phase resistance (in words) ([7]; compared with the model group): significantly reduced
lung compliance (in words) ([7]; compared with the model group): significantly increased
lung pathology, H&E ([6]; positive control group (dexamethasone 2 mg/kg body weight/day)): a small amount of inflammatory cell infiltration in the lungs, but the alveolar cavity is seriously damaged
